Holding throughout (format): functional, cell-based
Experiment [1] addresses T1, Glutamate receptor 2 (Homo sapiens, UniProt P42262). The experiment in a line: Activity at human recombinant iGluR2 flip expressed in HEK293 cells measured as change in intracellular calcium ion concentration in presence of glutamate by FLIPR assay.
In experiment [2] the target is T2, Glutamate receptor 4 (Homo sapiens, UniProt P48058). The experiment in a line: Activity at human recombinant iGluR4 flip expressed in HEK293 cells measured as change in intracellular calcium ion concentration in presence of glutamate by FLIPR assay. (In general: Calcium assays in cells follow changes in intracellular calcium, usually with a dye or a luminescent sensor.)
T2 sequence (P48058 whole entry): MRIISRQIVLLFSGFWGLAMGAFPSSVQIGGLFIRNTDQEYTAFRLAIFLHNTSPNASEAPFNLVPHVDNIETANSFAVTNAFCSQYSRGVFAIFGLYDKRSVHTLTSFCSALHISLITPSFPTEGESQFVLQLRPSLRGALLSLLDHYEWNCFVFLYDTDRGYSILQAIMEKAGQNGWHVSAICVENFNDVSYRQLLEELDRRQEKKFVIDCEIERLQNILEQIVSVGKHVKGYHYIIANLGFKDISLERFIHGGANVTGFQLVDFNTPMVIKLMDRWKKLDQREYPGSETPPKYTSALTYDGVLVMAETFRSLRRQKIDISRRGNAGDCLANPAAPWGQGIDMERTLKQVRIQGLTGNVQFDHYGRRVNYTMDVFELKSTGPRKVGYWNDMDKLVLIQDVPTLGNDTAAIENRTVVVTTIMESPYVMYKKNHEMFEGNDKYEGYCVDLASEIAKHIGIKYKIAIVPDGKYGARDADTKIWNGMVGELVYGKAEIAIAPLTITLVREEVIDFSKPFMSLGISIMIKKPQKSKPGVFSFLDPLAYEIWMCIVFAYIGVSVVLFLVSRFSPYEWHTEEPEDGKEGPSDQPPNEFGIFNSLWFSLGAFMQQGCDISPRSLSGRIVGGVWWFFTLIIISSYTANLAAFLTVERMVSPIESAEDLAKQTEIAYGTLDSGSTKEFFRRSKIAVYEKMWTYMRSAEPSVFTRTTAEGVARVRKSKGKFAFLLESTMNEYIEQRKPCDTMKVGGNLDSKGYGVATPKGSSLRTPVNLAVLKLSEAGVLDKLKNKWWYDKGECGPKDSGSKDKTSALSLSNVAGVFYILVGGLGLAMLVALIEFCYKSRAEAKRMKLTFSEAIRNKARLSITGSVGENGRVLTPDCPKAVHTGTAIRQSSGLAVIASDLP

For experiment [3], the target named is T2, Glutamate receptor 4. The experiment in a line: Activity at human recombinant iGluR4 flop expressed in HEK293 cells measured as change in intracellular calcium ion concentration in presence of glutamate by FLIPR assay.
The target in experiment [4] is T1, Glutamate receptor 2. The experiment in a line: Activity at human recombinant iGluR2 flop expressed in HEK293 cells measured as change in intracellular calcium ion concentration in presence of glutamate by FLIPR assay.

What is called EC50 is the concentration giving half of the maximal effect.

T1 sequence (P42262 whole entry): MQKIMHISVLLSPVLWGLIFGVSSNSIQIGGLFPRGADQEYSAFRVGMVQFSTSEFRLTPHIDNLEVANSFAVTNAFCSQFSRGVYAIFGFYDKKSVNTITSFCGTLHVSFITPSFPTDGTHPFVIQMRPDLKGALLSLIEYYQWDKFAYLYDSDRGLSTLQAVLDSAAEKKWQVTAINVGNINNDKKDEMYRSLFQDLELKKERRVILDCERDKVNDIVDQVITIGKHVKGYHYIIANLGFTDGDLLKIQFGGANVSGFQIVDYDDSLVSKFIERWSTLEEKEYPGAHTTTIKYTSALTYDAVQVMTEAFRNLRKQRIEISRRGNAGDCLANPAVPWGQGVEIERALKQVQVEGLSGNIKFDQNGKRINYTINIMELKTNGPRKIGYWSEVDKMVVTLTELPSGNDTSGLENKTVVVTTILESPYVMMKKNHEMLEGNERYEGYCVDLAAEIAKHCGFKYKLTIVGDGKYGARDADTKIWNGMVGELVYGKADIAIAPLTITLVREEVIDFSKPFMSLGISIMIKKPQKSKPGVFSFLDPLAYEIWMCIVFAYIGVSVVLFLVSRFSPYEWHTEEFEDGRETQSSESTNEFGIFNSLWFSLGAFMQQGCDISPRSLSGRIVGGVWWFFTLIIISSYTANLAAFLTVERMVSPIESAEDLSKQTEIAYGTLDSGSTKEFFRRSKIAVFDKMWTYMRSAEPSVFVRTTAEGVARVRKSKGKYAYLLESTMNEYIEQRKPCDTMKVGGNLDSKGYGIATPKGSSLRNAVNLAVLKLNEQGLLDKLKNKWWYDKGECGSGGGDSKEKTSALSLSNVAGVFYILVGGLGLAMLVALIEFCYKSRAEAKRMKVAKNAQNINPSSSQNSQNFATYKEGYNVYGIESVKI

For `CSc1sc(C(=O)O)c(-c2ccc(C(C)(C)C)cc2)c1C#N`, the EC50 in experiment [1] amounted to 97 nM; in experiment [2], 214 nM; in experiment [3], 1560 nM; in experiment [4] it was 309 nM.
The like results for `CCc1c(C#N)c(-c2ccc(-c3ccc(F)cc3)cc2)c(C(=O)O)n1C` were, in that order, 345 nM, 242 nM, 2950 nM and 1040 nM.
On to `CCSc1c(C#N)c(-c2ccc(-c3ccccc3)cc2)c(C(=O)O)n1C`, for which the EC50 in experiment [2] is 619 nM.
Regarding `CCc1c(C#N)c(-c2ccc(-c3cccc(C#N)c3)cc2)c(C(=O)O)n1C`, the concentration for a half-maximal effect (EC50) in experiment [1] was 395 nM; in experiment [2] it was 631 nM; in experiment [3], greater than 3000 nM; in experiment [4], 974 nM.
In the same order, the values of `CCc1c(C#N)c(-c2ccc(-c3ccc(C)cc3)cc2)c(C(=O)O)n1C` are 412 nM, 1140 nM, greater than 3000 nM and 1650 nM.
Take `CCc1c(C#N)c(-c2ccc(-c3ccccc3C)cc2)c(C(=O)O)n1C`: the concentration giving a half-maximal response (EC50) amounted to 270 nM in experiment [1], 790 nM in experiment [2], 1180 nM in experiment [3] and 990 nM in experiment [4].
Consider `CCc1c(C#N)c(-c2ccc(-c3ccccc3OC)cc2)c(C(=O)O)n1C`, for which the EC50 in experiment [1] came to 280 nM; in experiment [2] it was 673 nM; in experiment [3], 386 nM; in experiment [4] it was 902 nM.
The like results for `CCc1c(C#N)c(-c2ccc(-c3ccccc3SC)cc2)c(C(=O)O)n1C` were, in that order, 57 nM, 105 nM, 77 nM and 32 nM.
In the same order, the values of `CCc1c(C#N)c(-c2ccc(-c3cccc(OC)c3)cc2)c(C(=O)O)n1C` are 391 nM, 1050 nM, greater than 3000 nM and 924 nM.
With `Cc1c(C#N)c(-c2ccc(-c3ccccc3)cc2)c(C(=O)O)n1C`, the concentration giving a half-maximal response (EC50) was 308 nM in experiment [1], 532 nM in experiment [2], 2390 nM in experiment [3] and 391 nM in experiment [4].
In the same order, the values of `CCc1c(C#N)c(-c2ccc(-c3cccc(F)c3)cc2)c(C(=O)O)n1C` are 426 nM, 223 nM, greater than 3000 nM and 1490 nM.
In the same order, the values of `CCc1c(C#N)c(-c2ccc(-c3ccccc3F)cc2)c(C(=O)O)n1C` are 111 nM, 80 nM, 185 nM and 143 nM.
In the same order, the values of `CCc1c(C#N)c(-c2ccc(-c3cccc(C)c3)cc2)c(C(=O)O)n1C` are 965 nM, 2080 nM, greater than 3000 nM and 2130 nM.
For the compound `CCc1c(C#N)c(-c2ccc(-c3cccc(Cl)c3)cc2)c(C(=O)O)n1C`, the EC50 in experiment [1] is 186 nM; in experiment [2] it was 1080 nM; in experiment [3], greater than 3000 nM; in experiment [4], 900 nM.
In the same order, the values of `CC(C)Sc1c(C#N)c(-c2ccc(-c3ccccc3)cc2)c(C(=O)O)n1C` are greater than 3000 nM, greater than 3000 nM, greater than 3000 nM and greater than 3000 nM.
`CCOc1ccccc1-c1ccc(-c2c(C#N)c(CC)n(C)c2C(=O)O)cc1`: the 50% effective concentration (EC50) in experiment [1] is 83 nM; in experiment [2] it was 158 nM; in experiment [3], 146 nM; in experiment [4], 36 nM.
In the same order, the values of `CCc1c(C#N)c(-c2ccc(-c3ccccc3Cl)cc2)c(C(=O)O)n1C` are 42 nM, 225 nM, 157 nM and 55 nM.
In the same order, the values of `CCc1c(C#N)c(-c2ccc(-c3ccccc3C#N)cc2)c(C(=O)O)n1C` are 82 nM, 56 nM, 53 nM and 73 nM.
In the same order, the values of `CCc1c(C#N)c(-c2ccc(-c3ccc(C#N)cc3)cc2)c(C(=O)O)n1C` are 423 nM, 373 nM, greater than 3000 nM and 370 nM.
As to `CSc1c(C#N)c(-c2ccc(-c3ccccc3)cc2)c(C(=O)O)n1C`, the EC50 stood at 174 nM in experiment [1], 394 nM in experiment [2], 1300 nM in experiment [3] and 473 nM in experiment [4].
In the same order, the values of `CCc1c(C#N)c(-c2ccc(-c3ccc(OC)cc3)cc2)c(C(=O)O)n1C` are 423 nM, 738 nM, greater than 3000 nM and 370 nM.
In the same order, the values of `CCc1c(C#N)c(-c2ccc(-c3ccccc3)cc2)c(C(=O)O)n1C` are 103 nM, 213 nM, 1770 nM and 398 nM.
In the same order, the values of `CCc1c(C#N)c(-c2ccc(-c3ccc(Cl)cc3)cc2)c(C(=O)O)n1C` are 142 nM, 910 nM, greater than 3000 nM and 984 nM.
Regarding `Cn1c(Br)c(C#N)c(-c2ccc(-c3ccccc3)cc2)c1C(=O)O`, the EC50 in experiment [1] was greater than 3000 nM; in experiment [2] it was 679 nM; in experiment [3] it was 1690 nM; in experiment [4], greater than 3000 nM.
In the case of `Cn1cc(C#N)c(-c2ccc(-c3ccccc3)cc2)c1C(=O)O`, the EC50 in experiment [1], in experiment [2], in experiment [3] and in experiment [4] was greater than 3000 nM throughout.
